According to patent US20250011368A1, “DLL3 TARGETING PEPTIDES AND CONSTRUCTS THEREOF” (MARIANA ONCOLOGY INC., priority 2023, published 2025):
Bridge positions count the residues as written; N and C are the ends. Square brackets hold non-standard residues; d marks the D form. Peptide text beside a SMILES is read from it. * marks the point of attachment. DOTA = O=C(O)CN1CCN(CC(=O)O)CCN(CC(=O)*)CCN(CC(=O)O)CC1; Phe(4-CF3) = N[C@@H](Cc1ccc(C(F)(F)F)cc1)C(=O)O; Trp(5-F) = N[C@@H](Cc1c[nH]c2ccc(F)cc12)C(=O)O; Phe(2-CF3) = N[C@@H](Cc1ccccc1C(F)(F)F)C(=O)O; Trp(7-aza) = N[C@@H](Cc1c[nH]c2ncccc12)C(=O)O; Pro(trans-4-F) = O=C(O)[C@@H]1C[C@@H](F)CN1; Phe(4-F) = N[C@@H](Cc1ccc(F)cc1)C(=O)O; Gly(4-THP) = N[C@H](C(=O)O)C1CCOCC1; Nva(3-Et) = CCC(CC)[C@H](N)C(=O)O; Cha = N[C@@H](CC1CCCCC1)C(=O)O; Cba = N[C@@H](CC1CCC1)C(=O)O; Chg = N[C@H](C(=O)O)C1CCCCC1; Tle = CC(C)(C)[C@H](N)C(=O)O; Nle = CCCC[C@H](N)C(=O)O; Aze = O=C(O)[C@@H]1CCN1

Target: T1, human DLL3 (Homo sapiens, UniProt Q9NYJ7)
T1 sequence (Q9NYJ7 27-618): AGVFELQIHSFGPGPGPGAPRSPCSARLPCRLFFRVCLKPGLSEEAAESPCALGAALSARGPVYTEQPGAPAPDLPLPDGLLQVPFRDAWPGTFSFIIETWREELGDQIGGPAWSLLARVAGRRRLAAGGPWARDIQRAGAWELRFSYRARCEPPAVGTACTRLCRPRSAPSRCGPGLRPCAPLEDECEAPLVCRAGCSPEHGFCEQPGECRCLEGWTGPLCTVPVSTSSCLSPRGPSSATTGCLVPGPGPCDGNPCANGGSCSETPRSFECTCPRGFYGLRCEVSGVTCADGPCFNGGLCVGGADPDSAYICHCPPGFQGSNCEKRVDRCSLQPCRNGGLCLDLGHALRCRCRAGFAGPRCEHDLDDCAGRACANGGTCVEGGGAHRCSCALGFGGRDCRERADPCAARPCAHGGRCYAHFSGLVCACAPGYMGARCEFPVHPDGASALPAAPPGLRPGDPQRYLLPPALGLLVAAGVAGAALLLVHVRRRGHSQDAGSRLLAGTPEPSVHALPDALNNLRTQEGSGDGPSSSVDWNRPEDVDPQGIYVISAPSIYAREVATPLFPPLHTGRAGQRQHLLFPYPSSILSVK
Assay: Affinity determination by Surface Plasmon Resonance (SPR)
Format: binding
Settings: 25° C., biotinylated human DLL3 immobilized on streptavidin sensor chip, 1:1 binding model; read-out: SPR KD
Method in brief: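 Kinetic and affinity constants were derived by fitting sensorgrams to a 1:1 binding model. Graded compound concentrations flowed at 100 μL/minute in 20 mM phosphate running buffer with 2% DMSO over streptavidin-immobilized biotinylated human DLL3, reference-subtracted.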

Row | SMILES | Kd [nM]
1 | CC(=O)N[C@@H](Cc1c[nH]c2ccc(F)cc12)C(=O)N[C@H](C(=O)N[C@@H](CC1CCCCC1)C(=O)N[C@H]1CSSC[C@@H](C(=O)N[C@@H](Cc2c[nH]c3ncccc23)C(=O)N2C[C@H](F)C[C@H]2C(=O)N[C@H](CCCCNC(=O)CN2CCN(CC(=O)O)CCN(CC(=O)O)CCN(CC(=O)O)CC2)C(N)=O)NC(=O)[C@H](CC(=O)O)NC(=O)[C@H](Cc2cnc[nH]2)NC(=O)[C@H](Cc2ccc(F)cc2)NC(=O)[C@H](CC(N)=O)NC(=O)[C@H](CC(N)=O)NC1=O)[C@@H](C)O [compound 133, Ac-(5Fluoro-W)-T-(CHA)-C(3)-N-N-(4Fluoro-F)-H-D-C(3)-(7Aza-W)-(trans4Fluoro-P)-[D-Lys(DOTA)]-NH2] (Ac-[Trp(5-F)]T[Cha]CNN[Phe(4-F)]HDC[Trp(7-aza)][Pro(trans-4-F)][dK](DOTA)-NH2; disulfide 4-10) | 1 to 10
2 | CC(=O)N[C@@H](Cc1c[nH]c2ccc(F)cc12)C(=O)N[C@H](C(=O)N[C@@H](CC1CCC1)C(=O)N[C@H]1CSSC[C@@H](C(=O)N[C@@H](Cc2c[nH]c3ncccc23)C(=O)N2C[C@H](F)C[C@H]2C(=O)N[C@H](CCCCNC(=O)CN2CCN(CC(=O)O)CCN(CC(=O)O)CCN(CC(=O)O)CC2)C(N)=O)NC(=O)[C@H](CC(=O)O)NC(=O)[C@H](Cc2cnc[nH]2)NC(=O)[C@H](Cc2ccc(F)cc2)NC(=O)[C@H](CC(N)=O)NC(=O)[C@H](CC(N)=O)NC1=O)[C@@H](C)O [compound 134, Ac-(5Fluoro-W)-T-(CBA)-C(3)-N-N-(4Fluoro-F)-H-D-C(3)-(7Aza-W)-(trans4Fluoro-P)-[D-Lys(DOTA)]-NH2] (Ac-[Trp(5-F)]T[Cba]CNN[Phe(4-F)]HDC[Trp(7-aza)][Pro(trans-4-F)][dK](DOTA)-NH2; disulfide 4-10) | 1 to 10
3 | CC(=O)N[C@@H](Cc1c[nH]c2ccc(F)cc12)C(=O)N[C@H](C(=O)N[C@H](C(=O)N[C@H]1CSSC[C@@H](C(=O)N[C@@H](Cc2c[nH]c3ncccc23)C(=O)N2C[C@H](F)C[C@H]2C(=O)N[C@H](CCCCNC(=O)CN2CCN(CC(=O)O)CCN(CC(=O)O)CCN(CC(=O)O)CC2)C(N)=O)NC(=O)[C@H](CC(=O)O)NC(=O)[C@H](Cc2cnc[nH]2)NC(=O)[C@H](Cc2ccc(F)cc2)NC(=O)[C@H](CC(N)=O)NC(=O)[C@H](CC(N)=O)NC1=O)C1CCCCC1)[C@@H](C)O [compound 135, Ac-(5Fluoro-W)-T-(Chg)-C(3)-N-N-(4Fluoro-F)-H-D-C(3)-(7Aza-W)-(trans4Fluoro-P)-[D-Lys(DOTA)]-NH2] (Ac-[Trp(5-F)]T[Chg]CNN[Phe(4-F)]HDC[Trp(7-aza)][Pro(trans-4-F)][dK](DOTA)-NH2; disulfide 4-10) | 1 to 10
4 | CC(=O)N[C@@H](Cc1c[nH]c2ccc(F)cc12)C(=O)N[C@H](C(=O)N[C@@H](Cc1ccccc1C(F)(F)F)C(=O)N[C@H]1CSSC[C@@H](C(=O)N[C@@H](Cc2c[nH]c3ncccc23)C(=O)N2C[C@H](F)C[C@H]2C(=O)N[C@H](CCCCNC(=O)CN2CCN(CC(=O)O)CCN(CC(=O)O)CCN(CC(=O)O)CC2)C(N)=O)NC(=O)[C@H](CC(=O)O)NC(=O)[C@H](Cc2cnc[nH]2)NC(=O)[C@H](Cc2ccc(F)cc2)NC(=O)[C@H](CC(N)=O)NC(=O)[C@H](CC(N)=O)NC1=O)[C@@H](C)O [compound 136, Ac-(5Fluoro-W)-T-(2CF3-F)-C(3)-N-N-(4Fluoro-F)-H-D-C(3)-(7Aza-W)-(trans4Fluoro-P)-[D-Lys(DOTA)]-NH2] (Ac-[Trp(5-F)]T[Phe(2-CF3)]CNN[Phe(4-F)]HDC[Trp(7-aza)][Pro(trans-4-F)][dK](DOTA)-NH2; disulfide 4-10) | 1 to 10
5 | CC(=O)N[C@@H](Cc1c[nH]c2ccc(F)cc12)C(=O)N[C@H](C(=O)N[C@H](C(=O)N[C@H]1CSSC[C@@H](C(=O)N[C@@H](Cc2c[nH]c3ncccc23)C(=O)N2CC[C@H]2C(=O)N[C@H](CCCCNC(=O)CN2CCN(CC(=O)O)CCN(CC(=O)O)CCN(CC(=O)O)CC2)C(N)=O)NC(=O)[C@H](CC(=O)O)NC(=O)[C@H](Cc2cnc[nH]2)NC(=O)[C@H](Cc2ccc(C(F)(F)F)cc2)NC(=O)[C@H](CC(N)=O)NC(=O)[C@H](CC(N)=O)NC1=O)C(C)(C)C)[C@@H](C)O [compound 137, Ac-(5Fluoro-W)-T-(Tbg)-C(3)-N-N-(4CF3-F)-H-D-C(3)-(7Aza-W)-(Aze)-[D-Lys(DOTA)]-NH2] (Ac-[Trp(5-F)]T[Tle]CNN[Phe(4-CF3)]HDC[Trp(7-aza)][Aze][dK](DOTA)-NH2; disulfide 4-10) | 1 to 10
6 | CCC(CC)[C@H](NC(=O)[C@@H](NC(=O)[C@H](Cc1c[nH]c2ccc(F)cc12)NC(C)=O)[C@@H](C)O)C(=O)N[C@H]1CSSC[C@@H](C(=O)N[C@@H](Cc2c[nH]c3ncccc23)C(=O)N2CC[C@H]2C(=O)N[C@H](CCCCNC(=O)CN2CCN(CC(=O)O)CCN(CC(=O)O)CCN(CC(=O)O)CC2)C(N)=O)NC(=O)[C@H](CC(=O)O)NC(=O)[C@H](Cc2c[nH]cn2)NC(=O)[C@H](Cc2ccc(C(F)(F)F)cc2)NC(=O)[C@H](CC(N)=O)NC(=O)[C@H](CC(N)=O)NC1=O [compound 138, Ac-(5Fluoro-W)-T-(Env)-C(3)-N-N-(4CF3-F)-H-D-C(3)-(7Aza-W)-(Aze)-[D-Lys(DOTA)]-NH2] (Ac-[Trp(5-F)]T[Nva(3-Et)]CNN[Phe(4-CF3)]HDC[Trp(7-aza)][Aze][dK](DOTA)-NH2; disulfide 4-10) | 10 to 100
7 | CC(=O)N[C@@H](Cc1c[nH]c2ccc(F)cc12)C(=O)N[C@H](C(=O)N[C@H](C(=O)N[C@H]1CSSC[C@@H](C(=O)N[C@@H](Cc2c[nH]c3ncccc23)C(=O)N2CC[C@H]2C(=O)N[C@H](CCCCNC(=O)CN2CCN(CC(=O)O)CCN(CC(=O)O)CCN(CC(=O)O)CC2)C(N)=O)NC(=O)[C@H](CC(=O)O)NC(=O)[C@H](Cc2cnc[nH]2)NC(=O)[C@H](Cc2ccc(C(F)(F)F)cc2)NC(=O)[C@H](CC(N)=O)NC(=O)[C@H](CC(N)=O)NC1=O)C1CCOCC1)[C@@H](C)O [compound 139, Ac-(5Fluoro-W)-T-(THPG)-C(3)-N-N-(4CF3-F)-H-D-C(3)-(7Aza-W)-(Aze)-[D-Lys(DOTA)]-NH2] (Ac-[Trp(5-F)]T[Gly(4-THP)]CNN[Phe(4-CF3)]HDC[Trp(7-aza)][Aze][dK](DOTA)-NH2; disulfide 4-10) | 1 to 10
8 | CCCC[C@H](NC(=O)[C@@H](NC(=O)[C@H](Cc1c[nH]c2ccc(F)cc12)NC(C)=O)[C@@H](C)O)C(=O)N[C@H]1CSSC[C@@H](C(=O)N[C@@H](Cc2c[nH]c3ncccc23)C(=O)N2CC[C@H]2C(=O)N[C@H](CCCCNC(=O)CN2CCN(CC(=O)O)CCN(CC(=O)O)CCN(CC(=O)O)CC2)C(N)=O)NC(=O)[C@H](CC(=O)O)NC(=O)[C@H](Cc2cnc[nH]2)NC(=O)[C@H](Cc2ccc(C(F)(F)F)cc2)NC(=O)[C@H](CC(N)=O)NC(=O)[C@H](CC(N)=O)NC1=O [compound 140, Ac-(5Fluoro-W)-T-(Nle)-C(3)-N-N-(4CF3-F)-H-D-C(3)-(7Aza-W)-(Aze)-[D-Lys(DOTA)]-NH2] (Ac-[Trp(5-F)]T[Nle]CNN[Phe(4-CF3)]HDC[Trp(7-aza)][Aze][dK](DOTA)-NH2; disulfide 4-10) | 10 to 100
9 | CC(=O)N[C@@H](Cc1c[nH]c2ccc(F)cc12)C(=O)N[C@H](C(=O)N[C@@H](CC1CCCCC1)C(=O)N[C@H]1CSSC[C@@H](C(=O)N[C@@H](Cc2c[nH]c3ncccc23)C(=O)N2CC[C@H]2C(=O)N[C@H](CCCCNC(=O)CN2CCN(CC(=O)O)CCN(CC(=O)O)CCN(CC(=O)O)CC2)C(N)=O)NC(=O)[C@H](CC(=O)O)NC(=O)[C@H](Cc2cnc[nH]2)NC(=O)[C@H](Cc2ccc(C(F)(F)F)cc2)NC(=O)[C@H](CC(N)=O)NC(=O)[C@H](CC(N)=O)NC1=O)[C@@H](C)O [compound 141, Ac-(5Fluoro-W)-T-(CHA)-C(3)-N-N-(4CF3-F)-H-D-C(3)-(7Aza-W)-(Aze)-[D-Lys(DOTA)]-NH2] (Ac-[Trp(5-F)]T[Cha]CNN[Phe(4-CF3)]HDC[Trp(7-aza)][Aze][dK](DOTA)-NH2; disulfide 4-10) | 1 to 10
10 | CC(=O)N[C@@H](Cc1c[nH]c2ccc(F)cc12)C(=O)N[C@H](C(=O)N[C@@H](CC1CCC1)C(=O)N[C@H]1CSSC[C@@H](C(=O)N[C@@H](Cc2c[nH]c3ncccc23)C(=O)N2CC[C@H]2C(=O)N[C@H](CCCCNC(=O)CN2CCN(CC(=O)O)CCN(CC(=O)O)CCN(CC(=O)O)CC2)C(N)=O)NC(=O)[C@H](CC(=O)O)NC(=O)[C@H](Cc2cnc[nH]2)NC(=O)[C@H](Cc2ccc(C(F)(F)F)cc2)NC(=O)[C@H](CC(N)=O)NC(=O)[C@H](CC(N)=O)NC1=O)[C@@H](C)O [compound 142, Ac-(5Fluoro-W)-T-(CBA)-C(3)-N-N-(4CF3-F)-H-D-C(3)-(7Aza-W)-(Aze)-[D-Lys(DOTA)]-NH2] (Ac-[Trp(5-F)]T[Cba]CNN[Phe(4-CF3)]HDC[Trp(7-aza)][Aze][dK](DOTA)-NH2; disulfide 4-10) | 1 to 10
